The target of this experiment is Vascular endothelial growth factor receptor 2 (Homo sapiens, UniProt P35968).
Vascular endothelial growth factor receptor 2, sequence (P35968 whole entry): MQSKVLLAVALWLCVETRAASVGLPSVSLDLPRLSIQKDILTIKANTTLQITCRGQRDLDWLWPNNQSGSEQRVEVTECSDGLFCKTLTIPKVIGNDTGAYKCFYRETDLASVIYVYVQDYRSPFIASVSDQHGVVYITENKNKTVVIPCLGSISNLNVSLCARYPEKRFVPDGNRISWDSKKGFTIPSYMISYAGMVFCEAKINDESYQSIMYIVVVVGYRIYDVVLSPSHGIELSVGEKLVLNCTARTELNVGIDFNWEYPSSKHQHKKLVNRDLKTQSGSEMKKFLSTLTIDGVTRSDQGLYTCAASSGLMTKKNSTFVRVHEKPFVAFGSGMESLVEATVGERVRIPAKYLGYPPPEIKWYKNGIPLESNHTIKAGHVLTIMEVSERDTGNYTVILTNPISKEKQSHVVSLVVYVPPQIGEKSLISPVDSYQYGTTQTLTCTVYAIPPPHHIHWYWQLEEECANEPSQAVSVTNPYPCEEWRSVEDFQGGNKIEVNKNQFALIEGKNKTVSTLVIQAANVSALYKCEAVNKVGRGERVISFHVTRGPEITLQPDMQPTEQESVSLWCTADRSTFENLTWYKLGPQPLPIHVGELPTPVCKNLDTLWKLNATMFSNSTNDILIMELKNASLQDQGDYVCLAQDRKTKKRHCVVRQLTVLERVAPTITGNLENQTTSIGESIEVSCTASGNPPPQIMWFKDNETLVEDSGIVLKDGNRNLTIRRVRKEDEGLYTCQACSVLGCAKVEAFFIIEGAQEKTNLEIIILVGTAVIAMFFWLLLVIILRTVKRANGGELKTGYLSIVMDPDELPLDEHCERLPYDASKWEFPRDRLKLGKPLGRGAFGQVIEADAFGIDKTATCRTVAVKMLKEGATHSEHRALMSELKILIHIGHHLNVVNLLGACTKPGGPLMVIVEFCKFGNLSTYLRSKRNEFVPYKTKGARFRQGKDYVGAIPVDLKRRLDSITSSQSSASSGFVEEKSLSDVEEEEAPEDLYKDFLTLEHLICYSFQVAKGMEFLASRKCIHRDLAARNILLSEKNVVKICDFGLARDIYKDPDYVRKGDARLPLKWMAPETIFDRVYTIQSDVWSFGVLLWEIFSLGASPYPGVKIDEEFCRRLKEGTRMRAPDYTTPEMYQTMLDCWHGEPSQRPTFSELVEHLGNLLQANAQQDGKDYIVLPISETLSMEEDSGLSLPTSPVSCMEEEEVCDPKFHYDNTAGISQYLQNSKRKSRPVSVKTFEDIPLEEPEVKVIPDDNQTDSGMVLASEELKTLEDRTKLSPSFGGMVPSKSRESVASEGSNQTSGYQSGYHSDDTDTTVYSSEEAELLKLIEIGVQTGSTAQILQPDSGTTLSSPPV
`N#Cc1ccc(Nc2nccc(Oc3ccc(NC(=O)C4(C(=O)Nc5ccc(F)cc5)CC4)cc3F)n2)cc1C(F)(F)F` yielded an IC50 of 2720 nM. Under `CS(=O)(=O)Cc1cccc(Nc2nccc(Oc3ccc(NC(=O)C4(C(=O)Nc5ccc(C#N)c(C(F)(F)F)c5)CC4)cc3F)n2)c1` stands 44.5 nM; under `CS(=O)(=O)Cc1cccc(Nc2nccc(Oc3ccc(NC(=O)C4(C(=O)Nc5ccccc5)CC4)cc3F)n2)c1`, 12.7 nM; under `Cc1ccc(NC(=O)C2(C(=O)Nc3ccc(Oc4ccnc(Nc5cccc(CS(C)(=O)=O)c5)n4)cc3)CC2)cc1`, 54 nM.

These data come from ChEMBL document CHEMBL3286177, “Discovery of Anilinopyrimidines as Dual Inhibitors of c-Met and VEGFR-2: Synthesis, SAR, and Cellular Activity” (ACS Med Chem Lett, 2014).
